Legend:
[1] = test system: IL-1 production in human monocytes and macrophages; assay: Inhibition of IL-1 production in human monocytes and macrophages (silica-stimulated, thymocyte 3H-thymidine assay); assay type: cell-based; conditions: 0.1 to 100 μg/ml; 100 μg/ml silica, 48 hours; FIG. 2
Description: Normal human peripheral blood was heparin-treated and diluted with equal amount of Hank's balanced salt solution (HBSS: Ca^2+ and Mg^2+ free). The diluted blood was put into a centrifuge tube containing therein Ficoll-Hypaque(Sigma, St. Louis, Mo., U.S.A.) layer having a density of 1.077 piled up on Ficoll-Hypaque layer having a density of 1.119, and then centrifuged at 700×g for 30 minutes to obtain monocytes from the layer between Ficoll-Hypaque layer having a density of 1.077 and serum layer, and neutrophils from the layer between Ficoll-Hypaque layer having a density of 1.077 and that having a density of 1.119. The separated cells were washed twice with 4° C. HBSS(Ca^2+ and Mg^2+ free) and suspended in RPMI 1640 medium(Gibco, Grand Island, N.Y., U.S.A.) containing 10% fetal bovine serum(FBS, Hyclone, Logan, Utah, U.S.A.). The suspensions were added to the wells of 24-well incubation plate(Costar, Cambridge, Mass., U.S.A.) and incubated at 37° C. for 2 hours to obtain monocytes, macrophages and neutrophils. […] The activity of IL-1 in the dialyzate was determined in accordance with the method of Gery described in Cellular Immunology, 64, 293-303(1981) as follows. […] When the incubation was completed, the cells were collected on the glass fiber filter and the amount of incorporated ^3 H-thymidine was determined by liquid scintillation counter(Beckman).

[2] = test system: TNF-α production in rat alveolar macrophages and lymphocytes; assay: Inhibition of TNF-α production in rat alveolar macrophages and lymphocytes; assay type: cell-based; conditions: 10 μg/ml; 100 μg/ml silica, 3 days; FIG. 4
Description: TNF-α dependent L929 fibroblasts(ATCC CCLl) were suspended in RPMI 1640 medium containing 5% FBS and added to the wells of 96-well incubation plate in an amount of 3×10^4 cells/well. The plate was incubated at 37° C. for 2 hours to make the cells adhere to the incubation plate. Then, the medium was removed and 1 μg/ml of actinomycin D(Sigma) and 50 μl of culture dialyzate of monocytes and macrophages obtained in Example 1 were added to each of the wells. The final concentration of FBS in each well was adjusted to 5% and the cells were incubated at 37° C. under 5% CO2 for 24 hours.
When the incubation was completed, the medium was removed and the cells were washed twice with PBS and stained for 5 minutes with 0.5% crystal violet solution in 20% methanol. The cells were washed three times with PBS and dried. Then, 100 μl of 33% acetic acid was added to each of the wells to release the dye, and then the O.D. of sample obtained from each of the wells was determined by using ELISA reader with 570 nm reading filter and 405 nm reference filter. The amount of released dye was calculated from the O.D. value with reference to that of the internal control group, i.e., rHu TNF-α(Genzyme). […]

[3] = test system: collagen in rat pulmonary tissue; assay: Inhibition of collagen synthesis in rat pulmonary tissues (hydroxyproline); assay type: in vivo; conditions: rat pulmonary tissue treated with silica, DMSO and acanthoic acid; normal = 100%; FIG. 8
Description: IL-1 and TNF-α are known as cytokines which cause fibrosis and induce collagen synthesis in rat fibroblast(Kang, H. S., et al., Korean. J. Immunol., 14, 193(1992)). For the purpose of confirming the ability of acanthoic acid to suppress the action of IL-1 and TNF-α, its inhibitory effect on the collagen synthesis in rat pulmonary fibroblast and pulmonary tissues was determined. The amount of produced collagen in the culture of rat pulmonary fibroblast was measured by an indirect ELISA method, and that of pulmonary tissue was determined by measuring the concentration of hydroxyproline and calculating the amount of collagen therefrom by using the standard curve of internal control group. Further, for the purpose of determining the amount of synthesized collagen in rat pulmonary tissues, the amount of hydroxyproline was measured as follows. 0.1 to 0.2 g of the rat pulmonary tissue was mixed with 1 ml of PBS and then crushed in a Pyrex tube(Corning, Rochester, N.Y., U.S.A.). […] The resultant was freezed in a freezer, lyophilized in a freeze-dryer(Labconco) and dissolved completely in 1 ml of distilled water. 50 μl of the resulting solution was diluted with 50 μl of distilled water in a microcentrifuge tube. […] O.D. of the sample was measured at 650 nm, and the amount of hydroxyproline in the sample was calculated by employing the standard curve of internal control group.

## C=C[C@@]1(C)CC=C2C(CCC3[C@](C)(C(=O)O)CCC[C@@]23C)C1 (single isomer, unassigned; (-)) [acanthoic acid, (-)-pimara-9(11),15-diene-19-oic acid]
[1]
  inhibition of production of IL-1: inhibited by acanthoic acid in a concentration-dependent mode
[2]
  inhibition of production of TNF-α: inhibited
[3]
  decrease of amount of synthesized collagen: about 50%
